Measured values taken from patent US20030224446A1, “Method of predicting cytokine response to tissue injury” (priority 2001, published 2003).
Entries after “also recorded” stand apart in the source; their conditions may differ.

What was measured:
[1] = test system: astrocytes (GFAP immunoreactivity); test: GFAP immunohistochemistry of astrocytes in hippocampus 24 h after TMT; format: in vivo, mice
Description: (§1) Food and water were available ad libitum.
(§2) Based upon previous studies with TMT exposure (Bruccoleri et al., 1998, 1999), a minimum of six mice per group were examined for morphological changes in the hippocampus 24 h following injection. Animals were lightly anesthetized with CO2 and decapitated and brains were removed from the cranium, bisected in the midsagittal plane, and immersion-fixed in 4% paragormaldehyde/0.1 M phosphate-buffered saline (PBS; pH 7.2) overnight at room temperature. Eight-micron paraffin-embedded sections were stained by routine hematoxylin and eosin (H&E) to visualize tissue cellularity. Astrocytes were identified by immunohistochemistry using polyclonal glial fibrillary acidic protein (GFAP) antibodies (Dako Corp., Carpinteria, Calif.). Briefly, rehydrated sections were treated with 3% H2O2, subjected to heat-induced epitope retrieval (HIER) using a decloaking chamber (Biocare Medical, Walnut Creek, Calif.), and incubated with nonimmune goat serum (1.5:100 dilution in 1% BSA/PBS) prior to incubation with rabbit anti-rat GFAP (1:2000 in 1:1 solution of 1% BSA and 1% powered milk in PBS). Sections were incubated with a secondary IgG antibody followed by ABC (avidin-biotin complex) reagent (Vectastain Elite, Vector Laboratories, Burlingame, Calif.) and detected by 3,3′-diaminobenzidine tetrahydrochloride (DAB) substrate (Sigma-Aldrich Research, St. Louis, Mo.). Microglia cells were identified by lectin binding (Bandeiraea Simplicifolia BS-4, 1:10; Sigma Chemical Co.; St. Louis, Mo.) by the method of Streit and Kreutzberg (1987) using HIER. Sites containing microglia bound peroxidase-lectin conjugates were visualized by DAB-H2O2 substrate containing CO2 ions.

[2] = test system: TNFβ, TNFα, IL-1α, MIP-1α and TGF-β1 mRNA; test: RNase protection assay, cytokine probe set, cortex; format: in vivo, mice; conditions: 24 h
Description: as §1
(§3) Based upon earlier studies with TMT exposure (Bruccoleri et al., 1998, 1999), Rnase protection assays were conducted at 24-h post-TMT. Multiprobe sets were used for simultaneous detection of mRNAs as previously described (Hobbs, 1993; Bruccoleri et al., 1999). The first set, provided by Dr. Iain Campbell (Scripps Research Institute, San Diego, Calif.), contained probes for intercellular adhesion molecule-1 (ICAM-1), inducible nitric oxide synthase (iNOS), an anti-apoptotic TNFα-inducible early response gene (A20), macrophase-1 antigen (Mac-1), a murine acute-phase response gene homologous to the α-1-antichymotrypsin gene (EB22/5), and GFAP as previously described (Campbell et al., 1994). The second set was purchased from Pharmingen (San Diego, Calif.) and contained probes for tumor necrosis factor-β (TNFβ) and -α (TNFα), interleukin-1α (IL-1α), macrophage inflammatory protein-1α (MIP-1α), and transforming growth factor-β1 (TGF-β1). Each probe set contained probes for L32 and GAPDH. A minimum of 4 animals per group was used in each experiment. Individual fragments were separated by 5% acrylamide/8 M urea sequencing gel electrophoresis and visualized by autoradiography (Hyperfilm-MP film; Amersham, Buckinghamshire, U.K.). Radioactivity in each fragment was visualized by phosphorimager (Molecular Dynamics, Sunnyvale, Calif.) and relative volume determined using Imagequant (Molecular Dynamics) and normalized relative to the corresponding L32 volume.
(§4) Subsequent independent group mean comparisons between each saline-injected genotype or between TMT and saline-injected mice, within each genotype, were conducted using individual one-way ANOVAs for each gene transcript. A statistical significance level was set at p<0.05.
Given the genotype-specific effects in the hippocampus of 8-month-old mice following TMT, additional brain regions were examined. In the cortex, TMT exposure elevated mRNA levels for TNFα and TGF-β1 in the wild-type mice with no elevation seen in the APOE knockout or APOE4 mice (FIG. 7). MIP-1α mRNA levels in both wild-type and APOE4 mice were elevated by TMT with no elevation in APOE knockout mice (FIG. 7).

[3] = test system: hippocampal dentate granule cells; test: Hematoxylin and eosin staining of hippocampus 24 h after TMT; format: in vivo, mice
Description: as §1, §2

[4] = test system: wild-type, APOE knockout and APOE4 mice; test: Systemic toxicity (tremor, seizures, survival) after a single i.p. dose of TMT
[5] = test system: TNFβ, TNFα, IL-1α, MIP-1α and TGF-β1 mRNA; test: RNase protection assay, cytokine probe set, hippocampus; format: in vivo, mice; conditions: for increase of MEP-1α mRNA levels: vs saline
Description: as §1, §3, §4

[6] = test system: TNFβ, TNFα, IL-1α, MIP-1α and TGF-β1 mRNA; test: RNase protection assay, cytokine probe set, cerebellum; format: in vivo; conditions: 8-month-old mice, 24 h
Description: as §1
as §3, with “Individual fragments were separated by 5% acrylamide/8 M urea sequencing gel electrophoresis and visualized by autoradiography (Hyperfilm-MP film; Amersham, Buckinghamshire, U.K.).” left out, “volume. […]” for “volume.”

[7] = test system: ICAM-1, iNOS, A20, Mac-1, EB22/5 and GFAP mRNA; test: RNase protection assay, host-response gene probe set, hippocampus; format: in vivo, mice; conditions: 24 h; for mRNA levels for Mac-1, A20, and iNOS: any group of mice
Description: as §1, §3, §4

microglia = test: Lectin histochemistry for microglia in hippocampus 24 h after TMT; format: in vivo; conditions: 24 h post-TMT, wild-type, APOE knockout and APOE4 mice
Description: as §1
as §2, with “Microglia cells were identified by lectin binding (Bandeiraea Simplicifolia BS-4, 1:10; Sigma Chemical Co.; St. Louis, Mo.) by the method of Streit and Kreutzberg (1987) using HIER. Sites containing microglia bound peroxidase-lectin conjugates were visualized by DAB-H2O2 substrate containing CO2 ions.” left out

[8] = 8-month-old APOE knockout mice, hippocampus, 24 h
[9] = 8-month-old, all animals, hippocampus, 24 h
[10] = 21-day-old wild-type and APOE knockout mice

[CH3][Sn]([CH3])([CH3])[OH] [TMT, trimethyltin hydroxide]
astrocyte morphology (FIG. 2) ([1]; 24 h after TMT 2.0 mg/kg ip, compared with saline): thick cell bodies and processes characteristic of astrocyte reactivity
GFAP immunoreactivity in astrocytes ([1]; APOE knockout and APOE4 mice, 24 h after TMT): slight increase in GFAP immunoreactivity
GFAP immunostaining ([1]; wild-type mice, 24 h after TMT): little change
MIP-1α mRNA levels ([2]; 8-month-old APOE knockout mice): no elevation
mRNA levels for TNFα and TGF-β1 ([2]; 8-month-old APOE knockout or APOE4 mice): no elevation
MIP-1α mRNA levels ([2]; 8-month-old wild-type and APOE4 mice): elevated
mRNA levels for TNFα and TGF-β1 ([2]; 8-month-old wild-type mice): elevated
neuronal necrosis in dentate granule cells (FIG. 1) ([3]; TMT-exposed wild-type, APOE knockout and APOE4 mice, 2 mg/kg ip, 24 h): Severe neuronal necrosis
neuronal cell death in the hippocampus (dentate granule cells) ([3]; wild-type mice, 24 h after TMT): neuronal cell death was evident
neurons of the pyramidal cell layer ([3]; wild-type mice, 24 h after TMT): no indication of neuronal cell death
decrease in survival rate ([4]; APOE4 mice, 8 months of age, compared to APOE knockout and wild-type): ~40%
decrease in survival rate ([4]; APOE4 mice, 21 days of age, 2.0 mg/kg i.p.): 20%
decrease in survival rate ([4]; APOE knockout mice, 21 days of age, 2.0 mg/kg i.p.): 10%
aggressiveness or seizures ([4]; any of the mice exposed to TMT): No signs of aggressiveness or seizures
increase of MEP-1α mRNA levels ([5]; 8-month-old APOE4 mice, hippocampus, 24 h): 3 fold
elevation in MIP-1α mRNA compared to the response in wild-type mice ([5]; 8-month-old APOE knockout mice): less elevation
TNFα mRNA level [5, 8]: distinct lack of elevation; also recorded: No elevation
increase of MEP-1α mRNA levels [5, 8]: 1.3 fold
TNFα mRNA levels ([5]; 8-month-old wild-type and APOE4 mice, hippocampus, 24 h): elevated
increase of MEP-1α mRNA levels ([5]; 8-month-old wild-type mice, hippocampus, 24 h): 3.5 fold
MIP-1α mRNA levels relative to saline-injected mice [5, 9]: significant (p<0.05) elevations
mRNA levels for TNFβ, IL-1α, or TGF-β1 [5, 9]: No significant elevations
IL-1α mRNA levels ([5]; 21-day-old APOE knockout and APOE4 mice, hippocampus, 24 h): elevated
TNFα and TGF-β1 mRNA levels ([5]; 21-day-old wild-type and APOE knockout mice, hippocampus, 24 h): significantly elevated
MIP-1α mRNA levels ([5]; 21-day-old, all mice, hippocampus, 24 h): elevations
induction of TNFα, IL-1α, and MIP-1α by TMT ([5]; APOE knockout mice (discussion)): lack of an induction
induction of TGF-β1 ([5]; APOE knockout mice or those containing the E4 allele, following TMT (discussion)): lack of an induction
mRNA levels for TNFβ, TNFα, IL-1α, MIP-1α, and TGF-β1 [6]: no effect
EB22 mRNA levels ([7]; 8-month-old APOE knockout and APOE4 mice): elevation
EB22 mRNA levels ([7]; 8-month-old wild-type mice): No elevation
GFAP mRNA levels ([7]; 8-month-old, all groups of mice): elevation
mRNA levels for Mac-1, A20, and iNOS ([7]; 8-month-old): not altered
EB22 mRNA levels ([7]; 21-day-old APOE4 mice): no elevation
EB22 mRNA levels [7, 10]: significant (p<0.05) elevation
GFAP mRNA levels [7, 10]: significantly elevated
ICAM-1 mRNA levels ([7]; 21-day-old, all mice, vs saline): slight but significant elevation
mRNA levels for Mac-1, A20, and iNOS ([7]; 21-day-old): not altered
reactive/activated microglia by lectin histochemistry (microglia): did not detect reactive/activated microglia
